From PubChem BioAssay (NCI)
Several values for one entry are separate records, joined by “and”; a condition that tells them apart may be missing. Identical values can stand only once.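 Assay format: 96-well plates, 48-hour exposure. GI50 marks 50% less growth. At the TGI there is no net growth.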

Legend:
Test in all cases: growth of human tumour cells (NCI), 48 h
[1] = tested on: TK-10 renal
[2] = tested on: CAKI-1 renal
[3] = tested on: SNB-75 CNS
[4] = tested on: UACC-257 melanoma
[5] = tested on: COLO 205 colon
[6] = tested on: SF-295 CNS
[7] = tested on: EKVX NSCLC
[8] = tested on: NCI-H522 lung

## O=[As]c1ccc(C(=O)c2ccc(Oc3ccccc3)cc2)cc1 (stereo not given)
[1]
  GI50: 0.063 µM
  TGI: 0.19 µM
[2]
  GI50: 39.2 nM
  TGI: 0.12 µM
[3]
  GI50: 36.6 nM
  TGI: 0.15 µM
[4]
  GI50: 43.1 nM
  TGI: 0.171 µM
[5]
  GI50: 49.4 nM
  TGI: 0.169 µM
[6]
  GI50: 150 nM
  TGI: 0.327 µM
[7]
  GI50: 68.8 nM
  TGI: 0.205 µM
[8]
  GI50: 21.9 nM
  TGI: 0.0865 µM

## CCCCCc1c(C)[nH]c(/C=C2\N=C(c3ccc[nH]3)C=C2OCc2ccccc2)c1C
[1]
  GI50: 0.0475 µM and 0.0418 µM
  TGI: 1.01 µM and 0.471 µM
[2]
  GI50: 49.8 nM and 26.9 nM
[3]
  GI50: 80.3 nM and 21.4 nM
  TGI: 0.577 µM and 0.0825 µM
[4]
  GI50: 191 nM and 76.7 nM
  TGI: 1.53 µM and 0.668 µM
[5]
  GI50: 43.6 nM and 26 nM
  TGI: 0.661 µM and 0.159 µM
[6]
  GI50: 68.9 nM and 43.1 nM
  TGI: 0.337 µM and 0.292 µM
[8]
  GI50: 49.5 nM and 23.7 nM
  TGI: 0.719 µM and 0.262 µM

## COc1cc(/C=N\O)nc(-c2ccccn2)c1
[1]
  TGI: > 100 µM
[2]
  TGI: 28 µM
[3]
  TGI: > 51.6 µM
[4]
  TGI: > 100 µM
[5]
  TGI: > 100 µM
[6]
  TGI: > 100 µM
[7]
  TGI: 23.5 µM
[8]
  TGI: 56.2 µM

## COc1cccc(C2=C(c3cn(C)c4cccc(OC)c34)C(=O)NC2=O)c1
[1]
  GI50: 15.3 µM
  TGI: > 25 µM
[2]
  GI50: 9790 nM
  TGI: > 25 µM
[3]
  GI50: 4940 nM
  TGI: 24.5 µM
[4]
  GI50: > 15900 nM
  TGI: > 25 µM
[5]
  GI50: 6480 nM
  TGI: > 20.3 µM
[6]
  GI50: 7050 nM
  TGI: > 25 µM
[8]
  GI50: 1670 nM
  TGI: > 19.7 µM

## CO[C@H](C(=O)O)[C@@H]1Cc2cc3cc(OC4CC(OC5CC(O)C(O)C(C)O5)C(O)C(C)O4)c(C)c(O)c3c(O)c2C(=O)[C@H]1OC1CC(OC2CC(OC3CC(C)(O)C(O)C(C)O3)C(O)C(C)O2)C(O)C(C)O1 (stereo not given in full)
[1]
  GI50: 1.45 µM
  TGI: > 32.5 µM
[2]
  GI50: 598 nM
  TGI: > 32.5 µM
[3]
  GI50: 128 nM
  TGI: 0.741 µM
[4]
  GI50: 380 nM
  TGI: > 32.5 µM
[5]
  GI50: 285 nM
  TGI: 2.57 µM
[6]
  GI50: 167 nM
  TGI: > 32.5 µM
[7]
  GI50: 570 nM
  TGI: > 32.5 µM
[8]
  GI50: 134 nM
  TGI: > 32.5 µM

## O=C(Nc1ccc(I)cc1F)c1cc(I)ccc1O
[1]
  GI50: 1.49 µM
  TGI: > 64.5 µM
[2]
  GI50: 492 nM
  TGI: 4.11 µM
[3]
  GI50: 752 nM
  TGI: 6.75 µM
[4]
  GI50: 730 nM
  TGI: 2.6 µM
[5]
  GI50: 7170 nM
  TGI: 24 µM
[6]
  GI50: 800 nM
  TGI: 2.14 µM
[7]
  GI50: 737 nM
  TGI: 7.17 µM
[8]
  GI50: 327 nM
  TGI: 21.8 µM

## CCOC(=S)SCN1C(=O)c2ccccc2S1(=O)=O
[1]
  GI50: 29.4 µM
  TGI: > 100 µM
[2]
  GI50: 13000 nM
  TGI: 27.6 µM
[3]
  GI50: 4680 nM
  TGI: 29.6 µM
[4]
  GI50: 18500 nM
  TGI: 55.2 µM
[5]
  GI50: 2940 nM
  TGI: 11.2 µM
[6]
  GI50: 18000 nM
  TGI: 59.2 µM
[7]
  GI50: 19700 nM
  TGI: 36.6 µM
[8]
  GI50: 11300 nM
  TGI: 27.8 µM

## Nc1c(C(=O)Nc2cccc(Br)c2)sc2nc3c(cc12)C(O)CCC3 (stereo not given)
[1]
  GI50: 14.2 µM
  TGI: 51.6 µM
[2]
  GI50: 439 nM
  TGI: > 100 µM
[3]
  GI50: 359 nM
  TGI: 17.5 µM
[5]
  GI50: 410 nM
  TGI: > 32 µM
[6]
  GI50: 314 nM
  TGI: 16.2 µM
[8]
  GI50: 412 nM
  TGI: > 67.6 µM

## C#CCN(Cc1nc2cc(C(F)(F)F)ccc2nc1-c1ccccc1)c1ccc(F)c(F)c1
[1]
  GI50: > 100 µM
  TGI: > 100 µM
[3]
  GI50: > 100000 nM
  TGI: > 100 µM
[4]
  GI50: 40500 nM
  TGI: 64.9 µM
[5]
  GI50: 29400 nM
  TGI: > 100 µM
[6]
  GI50: 39700 nM
  TGI: > 100 µM
[7]
  GI50: 17000 nM
  TGI: 57.2 µM
[8]
  GI50: 27500 nM
  TGI: > 100 µM

## C1C[OH+]CC[OH+]CC[OH+]CC[OH+]CC[OH+]CC[OH+]1.[Cl-].[Nb+5]
[1]
  GI50: > 100 µM
  TGI: > 100 µM
[2]
  GI50: > 100000 nM
  TGI: > 100 µM
[3]
  GI50: 39600 nM
  TGI: > 100 µM
[4]
  GI50: > 100000 nM
  TGI: > 100 µM
[5]
  GI50: > 100000 nM
  TGI: > 100 µM
[6]
  GI50: > 100000 nM
  TGI: > 100 µM
[8]
  GI50: > 100000 nM
  TGI: > 100 µM

## C#Cc1cc2c(N)c(C(=O)c3cc(OC)c(OC)c(OC)c3)[nH]c2cc1OC
[1]
  GI50: 17.8 µM
  TGI: > 100 µM
[2]
  GI50: 573 nM
  TGI: > 100 µM
[3]
  GI50: 208 nM
  TGI: 1.18 µM
[4]
  GI50: 532 nM
  TGI: > 100 µM
[5]
  GI50: 380 nM
  TGI: 2.27 µM

## CN1CCN(CCOc2ccc(-c3cnc4c(-c5ccc(F)cc5)cnn4c3)cc2)CC1
[1]
  GI50: 1.82 µM
  TGI: 3.5 µM
[2]
  GI50: 1520 nM
  TGI: 2.89 µM
[3]
  GI50: 1340 nM
  TGI: 3.32 µM
[4]
  GI50: 2110 nM
  TGI: 4.42 µM
[6]
  GI50: 1730 nM
  TGI: 3.23 µM
[7]
  GI50: 1790 nM
  TGI: 3.55 µM
[8]
  GI50: 1870 nM
  TGI: 3.94 µM

## Cc1ncc([N+](=O)[O-])n1CCNC(=O)CCCCCn1ccnc1[N+](=O)[O-]
[2]
  TGI: > 100 µM
[3]
  TGI: > 100 µM
[4]
  TGI: > 100 µM
[5]
  TGI: > 100 µM
[6]
  TGI: > 100 µM
[8]
  TGI: > 100 µM

## COc1cc(-c2nn(-c3ccc(NC(=O)c4cc(Cl)cc(Cl)c4)cc3)cc2-c2ccncc2)ccc1Cl
[1]
  GI50: > 100 µM
  TGI: > 100 µM
[2]
  GI50: > 100000 nM
  TGI: > 100 µM
[3]
  GI50: 4140 nM
  TGI: > 100 µM
[4]
  GI50: > 100000 nM
  TGI: > 100 µM
[5]
  GI50: 6610 nM
  TGI: > 100 µM
[7]
  GI50: > 100000 nM
  TGI: > 100 µM

## COc1ccc(NC(=O)/C=C(C)/C=C/C=C(C)\C=C\C2=C(C)CCCC2(C)C)cc1
[1]
  GI50: > 100 µM
  TGI: > 100 µM
[3]
  GI50: 2150 nM
  TGI: > 100 µM
[4]
  GI50: 14100 nM
  TGI: > 100 µM
[5]
  GI50: 75900 nM
  TGI: > 100 µM
[6]
  GI50: 35700 nM
  TGI: > 100 µM
[7]
  GI50: 79000 nM
  TGI: > 100 µM
[8]
  GI50: 28200 nM
  TGI: > 100 µM

## O=C(c1ccccc1)C1C(C(=O)c2ccccc2)C(c2ccccc2)N(c2ccccc2)C1c1ccccc1 (stereo not given)
[1]
  TGI: > 100 µM
[2]
  TGI: > 100 µM
[4]
  TGI: > 100 µM
[5]
  TGI: > 100 µM
[6]
  TGI: > 100 µM
[7]
  TGI: > 100 µM
[8]
  TGI: > 100 µM

## Cc1nnc(-c2ccc(-c3nc4ccccc4o3)cc2)o1
[1]
  GI50: > 100 µM
  TGI: > 100 µM
[2]
  GI50: > 100000 nM
  TGI: > 100 µM
[4]
  GI50: 34700 nM
  TGI: 90.7 µM
[5]
  GI50: 76800 nM
  TGI: > 100 µM
[6]
  GI50: 40100 nM
  TGI: > 100 µM
[7]
  GI50: 85000 nM
  TGI: > 100 µM
[8]
  GI50: > 100000 nM
  TGI: > 100 µM

## Oc1ccc(Cl)cc1-c1cc(-c2ccc(F)cc2)n[nH]1
[1]
  GI50: 3.23 µM
  TGI: 8.74 µM
[2]
  GI50: 1770 nM
  TGI: 9.14 µM
[3]
  GI50: 2070 nM
  TGI: 9.19 µM
[4]
  GI50: 2960 nM
  TGI: 21 µM
[5]
  GI50: 2080 nM
  TGI: 4.85 µM
[6]
  GI50: 2160 nM
  TGI: 5.24 µM
[7]
  GI50: 1400 nM
  TGI: 14 µM
